These are literature values, as cited in patent US20100303877A1, “Controlled Release Hydrogel Films” (Board of Regents, The University of Texas System, priority 2009, published 2010).

The subject of this series is mammalian cells.

Each structure is given as a SMILES string. Some results are limits rather than exact numbers.

Consider `[Ag+]` [Ag^+, silver ions], for which the “silver ion concentration above which cytotoxicity occurs” value was over 10 mg per liter.
